According to article PMC9492458, “Development and structure–activity relationships of tanshinones as selective 11β-hydroxysteroid dehydrogenase 1 inhibitors” (Natural Products and Bioprospecting, 2022):

Tests used:
mouse 11β-HSD1 = mouse 11β-HSD1 (Mus musculus, UniProt P50172); assay: scintillation proximity assay (SPA), microsomes of HEK-293 cells transfected with mouse 11β-HSD1; details: for Mouse SI (selectivity index): SI = IC50(HSD2)/IC50(HSD1); for inhibition at 1 µM: read-out: Inhibitory ratio m-HSD1, at 1.0 μM, averages of three determinations
Protocol: (§1) With diverse tanshinones in hand, inhibition of human and mouse 11β-HSD1 enzymatic potency was measured by scintillation proximity assay (SPA) using microsomes containing 11β-HSD1 [46, 47]. Results are reported as the average of two or three independent experiments at each concentration.
(§2) The SPA was used to screen for inhibitors of 11β-HSDs [48], with the microsome fractions prepared from the HEK-293 cells stably transfected with either human or mouse 11β-HSD1 or 11β-HSD2 as the enzyme source. […] Reactions were initiated by the addition of 11β-HSD1 or 11β-HSD2, enzyme. […] The plates were incubated under plastic film on an orbital shaker for 120 min at room temperature before counting. The amount of [^3H]-cortisol generated in 11β-HSD1 enzyme reaction or remaining from the 11β-HSD2 enzyme reaction was captured by the beads and determined in a microplate liquid scintillation counter. The % inhibition was calculated relative to a non-inhibited control. Data were obtained from two or three independent experiments. IC50 values were calculated from concentration–response curves by a non-linear regression analysis using Prism Version 6.

mouse 11β-HSD2 = target: T1, mouse 11β-HSD2 (Mus musculus, UniProt P51661); assay: scintillation proximity assay (SPA), microsomes of HEK-293 cells transfected with mouse 11β-HSD2
T1 sequence (P51661 1-386): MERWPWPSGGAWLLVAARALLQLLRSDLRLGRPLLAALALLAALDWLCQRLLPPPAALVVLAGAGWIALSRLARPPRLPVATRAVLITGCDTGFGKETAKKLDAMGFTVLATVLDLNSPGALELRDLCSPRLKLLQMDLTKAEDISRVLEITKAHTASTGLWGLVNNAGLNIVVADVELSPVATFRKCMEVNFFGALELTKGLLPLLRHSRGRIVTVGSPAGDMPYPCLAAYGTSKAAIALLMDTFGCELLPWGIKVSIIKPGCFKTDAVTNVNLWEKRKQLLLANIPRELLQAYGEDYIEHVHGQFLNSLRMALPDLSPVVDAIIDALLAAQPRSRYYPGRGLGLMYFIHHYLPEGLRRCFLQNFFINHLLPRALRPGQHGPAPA
Protocol: as §1, §2

human 11β-HSD1 = human 11β-HSD1 (Homo sapiens, UniProt P28845); assay: scintillation proximity assay (SPA), microsomes of HEK-293 cells transfected with human 11β-HSD1; details: for inhibition at 1 µM: read-out: Inhibitory ratio h-HSD1, at 1.0 μM, averages of three determinations; for Human SI (selectivity index): Table 3, SI = IC50(HSD2)/IC50(HSD1)
Protocol: as §1, §2

human 11β-HSD2 = target: T2, human 11β-HSD2 (Homo sapiens, UniProt P80365); assay: scintillation proximity assay (SPA), microsomes of HEK-293 cells transfected with human 11β-HSD2
T2 sequence (P80365 1-405): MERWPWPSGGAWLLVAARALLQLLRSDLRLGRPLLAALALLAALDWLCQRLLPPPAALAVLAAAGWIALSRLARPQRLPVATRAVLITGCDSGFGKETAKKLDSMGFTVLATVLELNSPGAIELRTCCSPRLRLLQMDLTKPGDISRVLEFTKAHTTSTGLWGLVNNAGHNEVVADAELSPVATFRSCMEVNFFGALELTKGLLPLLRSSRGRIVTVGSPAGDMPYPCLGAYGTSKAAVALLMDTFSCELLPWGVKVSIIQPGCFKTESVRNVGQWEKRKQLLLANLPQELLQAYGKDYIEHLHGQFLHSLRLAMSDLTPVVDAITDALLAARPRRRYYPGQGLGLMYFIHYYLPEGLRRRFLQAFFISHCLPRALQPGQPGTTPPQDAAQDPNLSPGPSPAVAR
Protocol: as §1, §2

[1] = target: T3, 11β-HSD1 in 3T3-L1 adipocytes (Mus musculus, UniProt P50172); assay: 11β-HSD1 activity assay in 3T3-L1 adipocytes; type: cell-based
T3 construct: endogenous in cells; host or cells: 3T3-L1 adipocytes
Protocol: 11β-HSD1 enzyme inhibition in adipose tissue is believed to be important for achieving efficacy in vivo [11, 12]. Derivatives with potent enzymatic potency and excellent selectivity profiles (13, 14, 17, 28a, 28b and 30) were also evaluated their 11β-HSD1 inhibition in 3T3-L1 adipocyte.
The reductase activity of 11β-HSD1 in intact 3T3-L1 adipocytes was determined by measuring the rate of conversion of cortisone to cortisol. To explore the effect of compounds on 11β-HSD1 reductase activity, 3T3-L1 adipocytes were incubated for 1 h at 37 °C in serum-free DMEM containing 6.25 nmol/L [1,2-(N)^3H]-cortisone and different concentrations of compounds, according to experimental design. 0.1% DMSO was set as the vehicle control and MK544 was set as the positive control. At the end of the incubation, 80 μL of medium was pipetted into a transparent bottom 96-well plate, and 35 μL of SuperBlock Blocking Buffer containing 10 g/L of protein A-coated yttrium silicate beads and 3 mg/L of anti-cortisol antibodies was added. The mixtures were shaken in the dark for 2 h and then used for liquid scintillation readings. The inhibition effect was calculated by the following equation: Inhibition%=Data(compound)-Data(DMSO Vehicle)/Data(MK54410μM)-Data(DMSO Vehicle)×100%.

Sequence of human 11β-HSD1 (P28845 whole entry): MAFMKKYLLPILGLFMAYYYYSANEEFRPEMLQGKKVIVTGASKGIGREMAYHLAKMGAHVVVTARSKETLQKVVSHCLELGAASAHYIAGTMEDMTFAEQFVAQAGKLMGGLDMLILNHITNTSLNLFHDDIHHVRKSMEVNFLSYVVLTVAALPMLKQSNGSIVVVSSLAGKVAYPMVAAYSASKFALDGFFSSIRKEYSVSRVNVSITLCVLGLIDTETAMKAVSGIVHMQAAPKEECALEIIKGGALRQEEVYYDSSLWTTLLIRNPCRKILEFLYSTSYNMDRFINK
Sequence of mouse 11β-HSD1 (P50172 whole entry): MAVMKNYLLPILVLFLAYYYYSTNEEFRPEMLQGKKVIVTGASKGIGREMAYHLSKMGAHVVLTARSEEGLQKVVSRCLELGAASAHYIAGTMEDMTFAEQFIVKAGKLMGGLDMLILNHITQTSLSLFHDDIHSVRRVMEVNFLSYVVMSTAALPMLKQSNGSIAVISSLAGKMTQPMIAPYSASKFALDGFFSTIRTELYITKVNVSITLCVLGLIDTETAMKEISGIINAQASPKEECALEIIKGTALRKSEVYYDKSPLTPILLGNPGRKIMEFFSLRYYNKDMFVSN
T3 sequence (P50172 whole entry): as above

Row | Structure (SMILES) | IC50 (mouse 11β-HSD1) | Mouse SI (selectivity index) (mouse 11β-HSD1; Table 3) | inhibition at 1 µM (mouse 11β-HSD1) | IC50 (mouse 11β-HSD2) | inhibition at 1 µM (human 11β-HSD1) | Mouse SI (selectivity index) (mouse 11β-HSD1; Table 1) | IC50 (human 11β-HSD1) | IC50 (human 11β-HSD2) | Human SI (selectivity index) (human 11β-HSD1) | IC50 ([1]; 1 h incubation, averages of three determinations, read-out: IC50, cellular assay on 3T3-L1 adipocyte against 11β-HSD1) | Max effect ([1]; inhibition relative to MK544 10 μM)
1 | Cc1coc2c1C(=O)C(=O)c1c-2ccc2c1[C@H](O)[C@@H](O)CC2(C)C (racemic) [Compound 18a] | 0.138 ± 0.0108 µM | > 724.1 | 89 ± 3.5% | > 100 µM | 31.1 ± 0.2% |  |  |  |  |  | 
2 | C[C@H]1COC2=C1C(=O)C(=O)c1c2ccc2c1CCCC2(C)C [Compound 2, cryptotanshinone] | 0.0418 ± 0.0087 µM |  | 89.9 ± 3.7% | > 1000 µM | 91.3 ± 0.1% | > 23,923 | 0.0731 ± 0.0313 µM | 12.1 µM |  |  | 
3 | Cc1coc2c1c(=O)oc1c3ccccc3ccc21 [Compound 9] |  |  | 8.4% |  | 14 ± 1.3% |  |  |  |  |  | 
4 | Cc1coc2c1C(=O)C(=O)c1ccccc1-2 [Compound 10] | 0.0665 ± 0.0056 µM | > 150.3 | 89.9 ± 0.9% | > 10 µM | 87.6 ± 2.2% |  | 0.121 µM | > 10 µM | > 82.5 |  | 
5 | Cc1coc2c1C(=O)C(=O)C=C2 [Compound 11] |  |  | 33 ± 2.3% |  | 9.9 ± 1.1% |  |  |  |  |  | 
6 | Cc1coc2ccc(O)cc12 [Compound 12] |  |  | 12.4 ± 1.4% |  | 10 ± 2.3% |  |  |  |  |  | 
7 | Cc1coc2c1C(=O)C(=O)c1c-2ccc2c1CCC(O)C2(C)C (stereo not drawn) [Compound 15] | 0.0729 ± 0.0093 µM | > 1371.7 | 85.3 ± 0.2% | > 100 µM | 40.6 ± 1.5% |  |  |  |  |  | 
8 | CC(=O)OC1CCc2c(ccc3c2C(=O)C(=O)c2c(C)coc2-3)C1(C)C (stereo not drawn) [Compound 16] | 0.0101 ± 0.0008 µM | > 9900.9 | 89.3 ± 1.5% | > 100 µM | 50.3 ± 2.7% |  | 0.89 ± 0.1 µM | 7.3 ± 2.2 µM | 8.2 |  | 
9 | Cc1coc2c1C(=O)C(=O)c1c-2ccc2c1C(=O)C(O)CC2(C)C (stereo not drawn) [Compound 18b] |  |  | 49.4 ± 1.6% |  | 43.2 ± 1.7% |  |  |  |  |  | 
10 | Cc1coc2c1C(=O)C(=O)c1c-2ccc2c1C[C@@H](O)CC2(C)C [Compound 19] | 0.0484 ± 0.0066 µM | > 206.6 | 86.7 ± 2.1% | > 10 µM | 63.9 ± 2.7% |  | 0.32 µM | 2.7 ± 0.5 µM | 8.3 |  | 
11 | Cc1coc2c1C(=O)C(=O)c1c-2ccc2c1C(=O)C(O)=CC2(C)C [Compound 20] | 0.0966 ± 0.0165 µM | > 103.6 | 81.8 ± 1.5% | > 10 µM | 38.5 ± 2.2% |  |  |  |  |  | 
12 | CC(=O)Oc1c2c(c3ccc4c(c3c1OC(C)=O)CCCC4(C)C)OC[C@@H]2C [Compound 21] |  |  | 28.6 ± 0.3% |  | 5.1 ± 1.8% |  |  |  |  |  | 
13 | Cc1c[nH]c2c1C(=O)C(=O)c1c-2ccc2c1CCCC2(C)C [Compound 24] |  |  | 56 ± 2.2% |  | 33.6 ± 0.8% |  |  |  |  |  | 
14 | C[C@@H](CO)C1=C(N)c2ccc3c(c2C(=O)C1=O)CCCC3(C)C [Compound 25] | 0.095 ± 0.0178 µM | > 105.3 | 85.1 ± 0.6% | > 10 µM | 35.5 ± 2.8% |  |  |  |  |  | 
15 | Cc1coc2c3ccc4c(c3c3[nH]c(-c5ccc(O)cc5)nc3c12)CCCC4(C)C [Compound 26] |  |  | 19.2 ± 5.3% |  | 12.8 ± 0.8% |  |  |  |  |  | 
16 | Cc1c(-c2ccccc2)oc2c1C(=O)C(=O)c1c-2ccc2c1CCCC2(C)C [Compound 27a] |  |  | 25.9 ± 0.3% |  | 33.9 ± 1.8% |  |  |  |  |  | 

Row | Structure (SMILES) | IC50 (mouse 11β-HSD1) | Mouse SI (selectivity index) (mouse 11β-HSD1; Table 3) | inhibition at 1 µM (mouse 11β-HSD1) | IC50 (mouse 11β-HSD2) | inhibition at 1 µM (human 11β-HSD1) | Mouse SI (selectivity index) (mouse 11β-HSD1; Table 1) | IC50 (human 11β-HSD1) | IC50 (human 11β-HSD2) | Human SI (selectivity index) (human 11β-HSD1) | IC50 ([1]; 1 h incubation, averages of three determinations, read-out: IC50, cellular assay on 3T3-L1 adipocyte against 11β-HSD1) | Max effect ([1]; inhibition relative to MK544 10 μM)
17 | Cc1c(-c2ccc(F)cc2)oc2c1C(=O)C(=O)c1c-2ccc2c1CCCC2(C)C [Compound 27b] |  |  | 5.6 ± 0.5% |  | 3.8 ± 1.5% |  |  |  |  |  | 
18 | Cc1c(-c2ccncc2)oc2c1C(=O)C(=O)c1c-2ccc2c1CCCC2(C)C [Compound 27c] | 0.0069 ± 0.0012 µM | > 1451.4 | 70.6 ± 0.5% | > 10 µM | 82.5 ± 0.9% |  | 0.126 ± 0.0005 µM | 6.1 ± 0.7 µM | 48.4 |  | 
19 | Cc1c(-c2ccsc2)oc2c1C(=O)C(=O)c1c-2ccc2c1CCCC2(C)C [Compound 27d] |  |  | 37.4 ± 2.8% |  | 14.5 ± 1.4% |  |  |  |  |  | 
20 | Cc1c(-c2ccnc3ccccc23)oc2c1C(=O)C(=O)c1c-2ccc2c1CCCC2(C)C [Compound 27e] |  |  | 42.9 ± 3.7% |  | 15.1 ± 0.8% |  |  |  |  |  | 
21 | Cc1c(CN(C)C)oc2c1C(=O)C(=O)c1c-2ccc2c1CCCC2(C)C [Compound 29a] | 0.0171 ± 0.0009 µM | > 5813.9 | 96.6 ± 0.6% | > 100 µM | 92.1 ± 2.4% |  | 0.038 ± 0.0004 µM | 5.6 ± 0.9 µM | 147.9 |  | 
22 | Cc1c(CN2CCCCC2)oc2c1C(=O)C(=O)c1c-2ccc2c1CCCC2(C)C [Compound 29b] | 0.0655 ± 0.0037 µM | > 1526.7 | 89.5% | > 100 µM | 87.8 ± 0.8% |  | 0.0426 ± 0.0044 µM | 6.5 ± 3.6 µM | 151.9 |  | 
23 | Cc1c(CN2CCOCC2)oc2c1C(=O)C(=O)c1c-2ccc2c1CCCC2(C)C [Compound 29c] |  |  | 6.7 ± 4.3% |  | 45.2 ± 0.7% |  |  |  |  |  | 
24 | Cc1c(CN2CCN(C)CC2)oc2c1C(=O)C(=O)c1c-2ccc2c1CCCC2(C)C [Compound 29d] | 0.272 ± 0.0602 µM | > 367.2 | 55.6 ± 1.8% | > 100 µM | 67.3 ± 3.1% |  | 0.183 ± 0.0325 µM | 2.5 ± 0.6 µM | 13.6 |  | 
25 | CC1(C)CCCc2c1ccc1c2C(=O)C(=O)c2c(CNc3ccccc3)coc2-1 [Compound 31a] | 0.0566 ± 0.0007 µM | > 176.4 | 88.9 ± 3.5% | > 10 µM | 32.6 ± 5.8% |  | > 1 µM |  |  |  | 
26 | CC1(C)CCCc2c1ccc1c2C(=O)C(=O)c2c(CN3CCOCC3)coc2-1 [Compound 31b] |  |  | 37 ± 3.2% |  | 16.9 ± 3.7% |  |  |  |  |  | 
27 | CC1(C)CCCc2c1ccc1c2C(=O)C(=O)c2c-1oc(Cl)c2CO [Compound 32] | 0.328 ± 0.0202 µM | > 30.5 | 70.1 ± 1.1% | > 10 µM | 21.4 ± 1.8% |  | > 1 µM |  |  |  | 
28 | Cc1c(Br)oc2c1C(=O)C(=O)c1c-2ccc2c1C=CCC2(C)C [Compound 33] | 0.0393 ± 0.0076 µM | > 2551.0 | 87.3 ± 1.3% | > 100 µM | 70 ± 0.4% |  | 0.21 µM | 1.2 ± 0.5 µM | 5.8 |  | 
29 | CC1(C)C(=O)C=Cc2c1ccc1c2C(=O)C(=O)c2c(CO)coc2-1 [Compound 34] | 0.0672 ± 0.0064 µM | > 1488.1 | 90.8 ± 1.7% | > 100 µM | 53.9 ± 1.6% |  | 0.85 ± 0.2 µM | 1.9 ± 0.3 µM | 2.2 |  | 
30 | CC(=O)OC1CCc2c(ccc3c2C(=O)C(=O)c2c(CO)coc2-3)C1(C)C (stereo not drawn) [Compound 35] | 0.0219 ± 0.0079 µM | > 4575.5 | 83.6 ± 1.9% | > 100 µM | 48.9 ± 1.9% |  |  |  |  |  | 
31 | C1CCc2nnc(C34CC5CC(CC(C5)C3)C4)n2CC1 [MK544, reference compound] |  |  |  |  |  |  |  |  |  | 0.4 ± 0.1 µM | 98.0 ± 0.7%
